Measured values published in paper PMC9605374 (Marine Drugs, 2022).

How the values were obtained:
[1] = parameters: method as in PMID 27355960; conditions: no hemolytic activity; cited from earlier work
[2] = tested on: various pathogenic bacteria; parameters: method as in PMID 26039736; conditions: cited from earlier work
[3] = tested on: caspase-3 in PC3-DR cells; assay: Western blotting, caspase-3 cleavage; type: cell-based, human; conditions: 48 h
Protocol: Number of replicates n = 3. […] Viability was measured using an MTT assay. Number of replicates n = 3.
It is important to note that a reduction in p-gp activity could be conditioned by p-gp degradation or cell death-related processes. Consequently, using a Western blotting analysis, we measured p-gp expressional levels in the treated PC3-DR cells. […] Thus, the observed effect on p-gp activity seems to be exclusively related to the interaction of NB with p-gp rather than result from any cell death-related events.
The Western blot assay was executed as previously described: 1 × 10^6 cells were seeded in Petri dishes (ø 6 cm, 5 mL/dish) and incubated overnight. On the next day, the cells were treated with the compounds in fresh culture media (5 mL/dish) for the indicated time. Next, cells were harvested with a cell scraper and lysed in lysis buffer including protease and phosphatase inhibitors cocktail (Roche, Mannheim, Germany). Cell debris were removed from the protein lysates via centrifugation. Afterwards, the cell-free protein mixtures were separated in gradient ready-made Mini-PROTEAN® TGX Stain-Free^TM gels (Bio-Rad, Hercules, CA, USA) using SDS-PAGE (sodium dodecylsulfate polyacrylamide gel electrophoresis). Then, the proteins were blotted onto ø 0.2 µm pore PVDF membrane. […] The signals were detected using the ECL chemiluminescence system (Thermo Scientific, Rockford, IL, USA).

[4] = tested on: serine-/threonine kinases (JNK1/2, p38) in 22Rv1 cells; assay: Kinome profiling of serine/threonine kinases (PamGene), upstream kinase analysis; type: cell-based, human; conditions: 22Rv1, 1 µM and 10 µM, 2 h
From the text: To further investigate the mechanism of anticancer action of NB, we examined the effects of the compound on serine-/threonine protein kinases. Protein kinases modify target molecules (proteins) via phosphorylation, thus, altering their activity. A subgroup of these kinases—serine-/threonine kinases (STK)—play a key role in various essential processes related to cell death and cell survival. Consequently, protein kinases, in general, are important target molecules for various anticancer drugs. Specifically, modification of STKs’ activity has been exploited as a mechanism of action. Several clinically approved drugs, such as sunitinib, palbociclib, cobimetinib, and axitinib, utilize this mechanism to execute their therapeutic action. Thus, we performed functional kinomics using the microarray-based PamGene technology. This method allows a systematic examination of the changes in STK activity (http://www.pamgene.de, accessed on 22 January 2022, Figure 5A–D). We used two different concentrations, specifically, 1 µM and 10 µM, in order to cover different biological effects, which may take place at the different drug doses (Figure 5A). […]
Figure 5 Kinome profiling of serine/threonine kinases (STKs). 22Rv1 cells were incubated with NB for 2 h; the proteins were extracted and STK were analyzed using functional kinome profiling. […]

LC3B-I/II in 22Rv1 cells = assay: Western blotting, autophagy marker; type: cell-based, human
Protocol: We examined several time points, specifically, 15 min, 2 h, and 48 h (Figure 6).
Figure 6 Validation of kinome analysis data. 22Rv1 cells were treated with 1 µM or 10 µM of NB for the indicated time. The protein expression was analyzed by Western blotting using total protein load equal to 30 µg/slot. α-Tubulin was used as a loading control.
The Western blot assay was executed as previously described: 1 × 10^6 cells were seeded in Petri dishes (ø 6 cm, 5 mL/dish) and incubated overnight. On the next day, the cells were treated with the compounds in fresh culture media (5 mL/dish) for the indicated time. Next, cells were harvested with a cell scraper and lysed in lysis buffer including protease and phosphatase inhibitors cocktail (Roche, Mannheim, Germany). Cell debris were removed from the protein lysates via centrifugation. Afterwards, the cell-free protein mixtures were separated in gradient ready-made Mini-PROTEAN® TGX Stain-Free^TM gels (Bio-Rad, Hercules, CA, USA) using SDS-PAGE (sodium dodecylsulfate polyacrylamide gel electrophoresis). Then, the proteins were blotted onto ø 0.2 µm pore PVDF membrane. The membrane was blocked and consequently treated with primary and secondary antibodies for protein detection. The signals were detected using the ECL chemiluminescence system (Thermo Scientific, Rockford, IL, USA).

## COc1ccc(C2SSC34CC5(O)C(Cl)C=CC(O)C5ON3C(=O)C2N(C)C4=O)c(O)c1OC (centres unmarked) [NB, N-methylpretrichodermamide B]
[1]
  IC50: ≥ 100 µM
[2]
  MIC: 8–32 µm/mL
[3]
  concentration at which cleavage of caspase-3 was detected: 6 µM
[4]
  upstream kinase analysis, JNK1/2 and p38 kinases: very likely upregulated
LC3B-I/II in 22Rv1 cells
  effect on autophagy (LC3B-I/II expression): no significant effect on autophagy
